Assay results published in patent publication US20060142312A1, “C6-aryl and heteroaryl substituted pyrido[2,3-D] pyrimidin-7-ones” (PFIZER INC, priority 2004, published 2006).

melting point	Compound
75 °C	O=c1c(Cc2ccccc2)cc2cnc(NC3CCNCC3)nc2n1C1CCCC1 [Example 46, 6-Benzyl-8-cyclopentyl-2-(piperidin-4-ylamino)-8H-pyrido[2,3-d]pyrimidin-7-one]
118 to 119 °C	Cc1ccccc1Cc1cc2cnc(NCCCN3CCOCC3)nc2n(C2CCCC2)c1=O [Example 74, 8-Cyclopentyl-6-(2-methyl-benzyl)-2-(3-morpholin-4-yl-propylamino)-8H-pyrido[2,3-d]pyrimidin-7-one]
243 to 245 °C	CS(=O)(=O)N1CCC(Nc2ncc3cc(Cc4ccccc4)c(=O)n(C4CCCC4)c3n2)CC1 [Example 54, 6-Benzyl-8-cyclopentyl-2-(1-methanesulfonyl-piperidin-4-ylamino)-8H-pyrido[2,3-d]pyrimidin-7-one]
142 to 144 °C	O=c1c(Cc2ccccc2)cc2cnc(NCCCn3ccnc3)nc2n1C1CCCC1 [Example 50, 6-Benzyl-8-cyclopentyl-2-(3-imidazol-1-yl-propylamino)-8H-pyrido[2,3-d]pyrimidin-7-one]
167 to 170 °C	CN(C)C1CCC(Nc2ncc3cc(Cc4ccccc4)c(=O)n(C4CCCC4)c3n2)CC1 (centres unmarked) [Example 40, 6-Benzyl-8-cyclopentyl-2-(4-dimethylamino-cyclohexylamino)-8H-pyrido[2,3-d]pyrimidin-7-one]
186 to 188 °C	O=c1c(Cc2ccccc2)cc2cnc(NCc3ccccc3)nc2n1C1CCCC1 [Example 43, 6-Benzyl-2-benzylamino-8-cyclopentyl-8H-pyrido[2,3-d]pyrimidin-7-one]
163 to 165 °C	O=c1c(Cc2ccccc2)cc2cnc(NCCc3cnc[nH]3)nc2n1C1CCCC1 [Example 51, 6-Benzyl-8-cyclopentyl-2-[2-(3H-imidazol-4-yl)-ethylamino]-8H-pyrido[2,3-d]pyrimidin-7-one]

The next lines start with the compound.

Compound	melting point
CCCN1CCC(Nc2ncc3cc(Cc4nccs4)c(=O)n(C4CCCC4)c3n2)CC1 [Example 86, 8-Cyclopentyl-2-(1-propyl-piperidin-4-ylamino)-6-thiazol-2-ylmethyl-8H-pyrido[2,3-d]pyrimidin-7-one]	149 to 152 °C
CS(=O)(=O)N1CCC(Nc2ncc3cc(Cc4ccccn4)c(=O)n(C4CCCC4)c3n2)CC1 [Example 27, 8-Cyclopentyl-2-(1-methanesulfonyl-piperidin-4-ylamino)-6-pyridin-2-ylmethyl-8H-pyrido[2,3-d]pyrimidin-7-one]	220 to 223 °C
CN(C)C1CCC(Nc2ncc3cc(Cc4nccs4)c(=O)n(C4CCCC4)c3n2)CC1 (centres unmarked) [Example 87, 8-Cyclopentyl-2-(4-dimethylamino-cyclohexylamino)-6-thiazol-2-ylmethyl-8H-pyrido[2,3-d]pyrimidin-7-one]	154 to 157 °C
CCCN1CCC(Nc2ncc3cc(Cc4ccc(CC)cc4)c(=O)n(C4CCCC4)c3n2)CC1 [Example 62, 8-Cyclopentyl-6-(4-ethyl-benzyl)-2-(1-propyl-piperidin-4-ylamino)-8H-pyrido[2,3-d]pyrimidin-one]	151 to 153 °C
Cc1cccc(Cc2cc3cnc(NC4CCC(N(C)C)CC4)nc3n(C3CCCC3)c2=O)c1 (centres unmarked) [Example 65, 8-Cyclopentyl-2-(4-dimethylamino-cyclohexylamino)-6-(3-methyl-benzyl)-8H-pyrido[2,3-d]pyrimidin-7-one]	191 to 194 °C
CC(C)c1ccc(Cc2cc3cnc(NC4CCC(N(C)C)CC4)nc3n(C3CCCC3)c2=O)cc1 (centres unmarked) [Example 68, 8-Cyclopentyl-2-(4-dimethylamino-cyclohexylamino)-6-(4-isopropyl-benzyl)-8H-pyrido[2,3-d]pyrimidin-7-one]	174 to 181 °C
Cc1ccc(Cc2cc3cnc(NC4CCC(N(C)C)CC4)nc3n(C3CCCC3)c2=O)cc1 (centres unmarked) [Example 66, 8-Cyclopentyl-2-(4-dimethylamino-cyclohexylamino)-6-(4-methyl-benzyl)-8H-pyrido[2,3-d]pyrimidin-7-one]	179 to 184 °C
